# Laboratory results as given in patent US12661410B2, “Compounds for targeted degradation of RET” (C4 Therapeutics, Inc., priority 2020, dated 2026).
# Where a chain is given by its changes, count along the chain named. Where two headings read alike, the source gives them in different places.
# Key:
# RET(KD: 658-1114 G810R) = target: T1, RET(KD: 658-1114 G810R) (Homo sapiens, UniProt P07949, G810R); assay: HiBiT-Degradation, RET G810R degradation assay (Nano-Glo HiBiT Lytic), 293T.165 cells; format: cell-based; settings: for Emax / DC50: 6.0 hours
# T1 construct: 658-1114; expressed in transfected cells; host or cells: 293T.165 (293T cells, generated in-house)
# T1 sequence (P07949 658-1114 G810R): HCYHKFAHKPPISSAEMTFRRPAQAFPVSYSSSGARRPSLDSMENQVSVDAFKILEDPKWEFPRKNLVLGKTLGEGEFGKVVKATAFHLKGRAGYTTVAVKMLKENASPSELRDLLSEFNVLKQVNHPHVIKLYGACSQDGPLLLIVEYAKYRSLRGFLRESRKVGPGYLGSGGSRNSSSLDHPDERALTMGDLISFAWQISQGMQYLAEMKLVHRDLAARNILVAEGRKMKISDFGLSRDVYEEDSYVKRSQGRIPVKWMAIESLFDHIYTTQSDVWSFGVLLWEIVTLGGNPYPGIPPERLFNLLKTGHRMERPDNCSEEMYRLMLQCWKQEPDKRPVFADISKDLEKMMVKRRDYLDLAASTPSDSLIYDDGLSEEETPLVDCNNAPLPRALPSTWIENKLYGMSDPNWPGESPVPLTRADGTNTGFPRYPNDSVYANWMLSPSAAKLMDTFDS
# Outline: (§1)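 HEK293T lines stably expressing HiBiT-tagged RET kinase domain (WT: 293T.144; G810R: 293T.165) were treated with degraders for 6 h in duplicate, 11-point half-log series from 10 μM top dose. Lysis with Nano-Glo HiBiT Lytic reagent, luminescence read; DC50 and Emax (% remaining protein) derived from dose-response curves.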
# RET (658-1114) = target: T2, RET (658-1114) (Homo sapiens, UniProt P07949); assay: HiBiT-Degradation, RET wild-type degradation assay (Nano-Glo HiBiT Lytic), 293T.144 cells; format: cell-based; settings: for DC50 / Emax: 6.0 hours
# T2 construct: 658-1114; expressed in transfected cells; host or cells: 293T.144 (293T cells, generated in-house)
# T2 sequence (P07949 658-1114): T1 sequence (P07949 658-1114 G810R) with R153G
# Outline: as §1
# [1] = % remaining protein, read-out: 293T.165 RET(KD: 658-1114 G810R) 6.0 hours (Emax)
# [2] = half-maximal degradation concentration, read-out: 293T.165 RET(KD: 658-1114 G810R) 6.0 hours (DC50)
# [3] = HiBiT-Degradation, read-out: 293T.165 RET(KD: 658-1114 G810R) 6.0 hours (DC50)
# [4] = HiBiT-Degradation, read-out: 293T.144 RET (658-1114) 6.0 hours (DC50)
# [5] = HiBiT-Degradation, read-out: 293T.144 RET (658-1114) 6.0 hours (Emax)
# [6] = % remaining protein, read-out: 293T.144 RET (658-1114) 6.0 hours (Emax)
# [7] = half-maximal degradation concentration, read-out: 293T.144 RET (658-1114) 6.0 hours (DC50)
Emax (RET(KD: 658-1114 G810R); [1]) [%],DC50 (RET(KD: 658-1114 G810R); [2]) [nM],293T.165 RET(KD: 658-1114 G810R) 6.0 hours (Emax) (RET(KD: 658-1114 G810R); HiBiT-Degradation),293T.165 RET(KD: 658-1114 G810R) 6.0 hours (IP) [nM] (RET(KD: 658-1114 G810R); HiBiT-Degradation),DC50 (RET(KD: 658-1114 G810R); [3]) [nM],293T.144 RET (658-1114) 6.0 hours (IP) [nM] (RET (658-1114); HiBiT-Degradation),DC50 (RET (658-1114); [4]) [nM],Emax (RET (658-1114); [5]) [%],293T.165 RET(KD: 658-1114 G810R) 6.0 hours (IP) [nM] (RET(KD: 658-1114 G810R)),293T.144 RET (658-1114) 6.0 hours (IP) [nM] (RET (658-1114)),Emax (RET (658-1114); [6]) [%],DC50 (RET (658-1114); [7]) [nM],Structure (SMILES),HiBiT-Degradation 293T.165 RET(KD: 658-1114 G810R) 6.0 hours (IP) [nM] (RET(KD: 658-1114 G810R); RET G810R),"DC50 (RET(KD: 658-1114 G810R); RET G810R, read-out: HiBiT-Degradation 293T.165 RET(KD: 658-1114 G810R) 6.0 hours (DC50)) [nM]","Emax (RET(KD: 658-1114 G810R); RET G810R, read-out: HiBiT-Degradation 293T.165 RET(KD: 658-1114 G810R) 6.0 hours (Emax)) [%]",HiBiT-Degradation 293T.144 RET (658-1114) 6.0 hours (IP) [nM] (RET (658-1114); RET wild-type),"DC50 (RET (658-1114); RET wild-type, read-out: HiBiT-Degradation 293T.144 RET (658-1114) 6.0 hours (DC50)) [nM]","Emax (RET (658-1114); RET wild-type, read-out: HiBiT-Degradation 293T.144 RET (658-1114) 6.0 hours (Emax)) [%]"
< 30,< 100,++++ (< 30% = ++++),++++ (< 50 nM = ++++),< 100,++++ (< 50 nM = ++++),< 50,< 30,–,–,–,–,"CCC1(C(=O)NC(C)C)CCN(c2ccc(-c3cc(-c4cnn(C5CCN(C(=O)CN6CCC(c7ccc8c(N9CCC(=O)NC9=O)nn(C)c8c7)CC6)CC5)c4)cn4ncc(C#N)c34)cn2)CC1 [Compound 63, 1-[5-[3-cyano-6-[1-[1-[2-[4-[3-(2,4-dioxohexahydropyrimidin-1-yl)-1-methyl-indazol-6-yl]-1-piperidyl]acetyl]-4-piperidyl]pyrazol-4-yl]pyrazolo[1,5-a]pyridin-4-yl]-2-pyridyl]-4-ethyl-N-isopropyl-piperidine-4-carboxamide]",–,–,–,–,–,–
< 30,< 50,++++ (< 30% = ++++),++++ (< 50 nM = ++++),< 50,++++ (< 50 nM = ++++),< 50,< 30,–,–,–,–,"CCC1(C(=O)NC(C)C)CCN(c2ccc(-c3nc(-c4cnn(C5CCN(C(=O)CN6CCC(c7ccc(NC8CCC(=O)NC8=O)cc7)CC6)CC5)c4)cn4ncc(C#N)c34)cn2)CC1 (stereo not drawn) [Compound 31, 1-(5-(3-Cyano-6-(1-(1-(2-(4-(4-((2,6-dioxopiperidin-3-yl)amino)phenyl)piperidin-1-yl)acetyl)piperidin-4-yl)-1H-pyrazol-4-yl)pyrazolo[1,5-a]pyrazin-4-yl)pyridin-2-yl)-4-ethyl-N-isopropylpiperidine-4-carboxamide]",–,–,–,–,–,–
< 30,< 50,–,–,–,–,–,–,++++ (<50 nM = ++++),++++ (<50 nM = ++++),< 30,< 50,"CCC1(C(=O)NC(C)C)CCN(c2ccc(-c3nc(-c4cnn(C5CCN(C(=O)CC6(O)CCN(c7ccc(NC8CCC(=O)NC8=O)cc7F)CC6)CC5)c4)cn4ncc(C#N)c34)cc2)CC1 (stereo not drawn) [Compound 121, 1-(4-(3-Cyano-6-(1-(1-(2-(1-(4-((2,6-dioxopiperidin-3-yl)amino)-2-fluorophenyl)-4-hydroxypiperidin-4-yl)acetyl)piperidin-4-yl)-1H-pyrazol-4-yl)pyrazolo[1,5-a]pyrazin-4-yl)phenyl)-4-ethyl-N-isopropylpiperidine-4-carboxamide]",–,–,–,–,–,–
< 50,< 100,–,–,–,–,–,–,++++ (<50 nM = ++++),++++ (<50 nM = ++++),< 30,< 50,"CCC1(C(=O)NC(C)C)CCN(c2ccc(-c3nc(-c4cnn(C5CCN(C(=O)CC6(O)CC7(CN(c8ccc(NC9CCC(=O)NC9=O)cc8F)C7)C6)CC5)c4)cn4ncc(C#N)c34)cn2)CC1 (stereo not drawn) [Compound 97, 1-[5-[3-cyano-6-[1-[1-[2-[2-[4-[(2,6-dioxo-3-piperidyl)amino]-2-fluoro-phenyl]-6-hydroxy-2-azaspiro[3.3]heptan-6-yl]acetyl]-4-piperidyl]pyrazol-4-yl]pyrazolo[1,5-a]pyrazin-4-yl]-2-pyridyl]-4-ethyl-N-isopropyl-piperidine-4-carboxamide]",–,–,–,–,–,–

Structure (SMILES),Emax (RET(KD: 658-1114 G810R); [1]) [%],DC50 (RET(KD: 658-1114 G810R); [2]) [nM],293T.165 RET(KD: 658-1114 G810R) 6.0 hours (Emax) (RET(KD: 658-1114 G810R); HiBiT-Degradation),293T.165 RET(KD: 658-1114 G810R) 6.0 hours (IP) [nM] (RET(KD: 658-1114 G810R); HiBiT-Degradation),DC50 (RET(KD: 658-1114 G810R); [3]) [nM],293T.144 RET (658-1114) 6.0 hours (IP) [nM] (RET (658-1114); HiBiT-Degradation),DC50 (RET (658-1114); [4]) [nM],Emax (RET (658-1114); [5]) [%],293T.165 RET(KD: 658-1114 G810R) 6.0 hours (IP) [nM] (RET(KD: 658-1114 G810R)),293T.144 RET (658-1114) 6.0 hours (IP) [nM] (RET (658-1114)),Emax (RET (658-1114); [6]) [%],DC50 (RET (658-1114); [7]) [nM],HiBiT-Degradation 293T.165 RET(KD: 658-1114 G810R) 6.0 hours (IP) [nM] (RET(KD: 658-1114 G810R); RET G810R),"DC50 (RET(KD: 658-1114 G810R); RET G810R, read-out: HiBiT-Degradation 293T.165 RET(KD: 658-1114 G810R) 6.0 hours (DC50)) [nM]","Emax (RET(KD: 658-1114 G810R); RET G810R, read-out: HiBiT-Degradation 293T.165 RET(KD: 658-1114 G810R) 6.0 hours (Emax)) [%]",HiBiT-Degradation 293T.144 RET (658-1114) 6.0 hours (IP) [nM] (RET (658-1114); RET wild-type),"DC50 (RET (658-1114); RET wild-type, read-out: HiBiT-Degradation 293T.144 RET (658-1114) 6.0 hours (DC50)) [nM]","Emax (RET (658-1114); RET wild-type, read-out: HiBiT-Degradation 293T.144 RET (658-1114) 6.0 hours (Emax)) [%]"
"N#Cc1cnn2cc(-c3cnn(C4CCN(C(=O)CN5CCC(c6ccc(NC7CCC(=O)NC7=O)cc6F)CC5)CC4)c3)cc(-c3ccc(N4CC5CC(C4)N5Cc4ccccn4)nc3)c12 (stereo not drawn) [Compound 73, 6-[1-[1-[2-[4-[4-[(2,6-dioxo-3-piperidyl)amino]-2-fluoro-phenyl]-1-piperidyl]acetyl]-4-piperidyl]pyrazol-4-yl]-4-[6-[6-(2-pyridylmethyl)-3,6-diazabicyclo[3.1.1]heptan-3-yl]-3-pyridyl]pyrazolo[1,5-a]pyridine-3-carbonitrile]",< 30,< 50,–,–,–,–,–,–,–,–,–,–,++++ (< 50 nM = ++++),< 50,< 30,++++ (< 50 nM = ++++),< 50,< 30
